The values below come from patent EP4813986A1, “COMPOUND FOR REDUCING SERUM CONCENTRATION OF RBP4, AND USE” (Heronova Pharmaceuticals, LLC, priority 2023, dated 2025).

Where two headings read alike, the source gives them in different places.

One data set deals with T1, RBP4 (Mus musculus, UniProt Q00724).
T1 construct: from tissue; host or cells: plasma of ICR male mice
Nature of the data set: Plasma RBP4 content detection test (ELISA) after single oral dose. Type of data set: in vivo, ICR male mice. The conditions noted are these: 5 mg/kg oral, maximum reduction within 5 to 24 hours vs 0-hour value. The method, then:
Test Method: ICR male mice aged 7 to 8 weeks were adaptively fed for 3 to 7 days and randomly divided into groups (4 mice per group), and fasted for 12 hours before the test. Orbital venous blood samples were collected and plasma was separated before administration on the test day (0-hour value as the initial content). Then, test compounds at a dose of 1 mg/kg or 5 mg/kg were orally administered (vehicle: 5% DMSO + 10% cyclodextrin), and vehicle (5% DMSO + 10% cyclodextrin) was orally administered as a control group. Orbital venous blood samples were collected and plasma was separated at 5, 8, 10, 12, and 24 hours after compound administration. The RBP4 content in plasma samples was detected using Mouse RBP4 (Retinol Binding Protein 4, Plasma) ELISA Kit (immunoway, KE1574), the reduction rate was calculated, and the maximum reduction rate within 5 to 24 hours was selected. Reduction rate of RBP4 content in mouse plasma at different sampling time points = (Initial RBP4 content - RBP4 content at sampling point) / Initial RBP4 content. Table 2 Plasma RBP4 Reduction Levels of Different Compounds
On the technique in general: In an ELISA, binding on a coated surface is turned into a signal by an enzyme label.

A short description of a further data set: in vitro. The settings on record: microsomes, pH 7.4. The method, then:
Phosphate buffer preparation: Weigh 7.098 g of disodium hydrogen phosphate, add 500 mL of pure water and dissolve by ultrasonication to obtain a disodium hydrogen phosphate solution. Weigh 3.400 g of potassium dihydrogen phosphate, add 250 mL of pure water and dissolve by ultrasonication to obtain a potassium dihydrogen phosphate solution. The disodium hydrogen phosphate solution and potassium dihydrogen phosphate solution were mixed and adjusted to pH 7.4+0.2.
10 mM NADPH preparation: Weigh an appropriate amount of NADPH (reduced coenzyme II), freshly prepare a 10 mM working solution with phosphate buffer, and the final concentration is 1 mM.
Incubation system preparation: Prepare the suspension into the incubation plate according to Table 5, and pre-incubate in a 37°C water bath for 10 min. Table 5 Incubation System Preparation
2 µL of positive control or test compound working solution was added to 358 µL of the incubation system, mixed uniformly by vortexing, and all samples were prepared in duplicate. 40 µL of 10 mM NADPH was added to the system, mixed uniformly by low-speed vortexing, and the reaction timing was started. […] Centrifuge at 4700 rpm, 4°C for 15 minutes to precipitate proteins. Transfer 100 µL of the supernatant to the sample plate, add 100 µL of pure water and mix well for UPLC-MS/MS analysis. Table 6 Liver Microsome Stability Results

A short description of data set [1]: Pharmacokinetic test, single oral dose, plasma LC-MS/MS. Format: in vivo. The settings on record: mouse, male ICR mice; for half-life: read-out: half-life T1/2 (converted); for Cmax: read-out: peak concentration Cmax; for Tmax: read-out: peak time Tmax. The procedure:
Test Method: Three ICR mice (male) were used for each compound, with five groups in total. Mice were treated with a single oral dose of 10 mg/kg or 5 mg/kg. For each mouse, blood samples were collected at 0.25, 0.5, 1, 2, 4, and 8 hours after administration. Whole blood samples were placed in test tubes containing EDTA-K2, inverted up and down several times, and then centrifuged at 6000 rpm, 4°C for 15 minutes to obtain plasma. The concentration of the compound in plasma samples was determined using the LC-MS/MS method. Table 4 Pharmacokinetic Results of Different Compounds

What is called microsomal CLint is the capacity of the preparation to metabolise the compound, expressed as a volume cleared per time. A word on the AUC(0-t): it is exposure summed from dosing to a finite time, without extrapolation to infinity. Lower therefore signals low exposure. A word on the Tmax: it is the time at which the peak concentration occurs. With `COCC(=O)N1CCc2c(C(=O)N3CC=C(c4ccc(F)c(F)c4C(F)(F)F)CC3)n[nH]c2C1` [Compound 7], the “Maximum Plasma RBP4 Reduction Rate (5 mg/kg dose)” value (“Maximum Plasma RBP4 Reduction Rate” below) on RBP4 was 64%. In “in vitro” (human), the half-life at 1 µM amounted to 103 min and the microsomal CLint at 1 µM worked out at 13.4 µL/min/mg. Besides, in the data set “in vitro” (mouse), the half-life at 1 µM worked out at 15.6 min and the microsomal CLint at 1 µM was 89 µL/min/mg. In data set [1] (single oral dose 10 mg/kg), the AUC(0-t) came out at 1530 ng·h/mL, the half-life was 89.4 min, the Cmax came out at 1050 ng/mL and the Tmax came to 30 min.
Regarding `NC(=O)C(=O)N1CCc2c(C(=O)N3CC=C(c4cccc(F)c4C(F)(F)F)CC3)n[nH]c2C1` [Compound 21], on RBP4, the “Maximum Plasma RBP4 Reduction Rate” value is given as 14%. Further, in “in vitro” (human), the half-life at 1 µM was more than 180 min and the microsomal CLint at 1 µM is less than 7.44 µL/min/mg. In “in vitro” (mouse), the half-life at 1 µM is 136 min and the microsomal CLint at 1 µM worked out at 10.2 µL/min/mg. In addition, in data set [1] (single oral dose 10 mg/kg), the AUC(0-t) was 1200 ng·h/mL, the half-life is 152 min, the Cmax came out at 519 ng/mL and the Tmax is 30 min.
On to `[2H]C([2H])([2H])OCC(=O)N1CCc2c(C(=O)N3CC=C(c4ccc(F)c(F)c4C(F)(F)F)CC3)n[nH]c2C1` [Compound 9], for which the “Maximum Plasma RBP4 Reduction Rate” value on RBP4 worked out at 82%. In the data set “in vitro” (human), this compound displayed a half-life at 1 µM of 130 min and a microsomal CLint at 1 µM of 10.6 µL/min/mg. For the same compound, in “in vitro” (mouse), the half-life at 1 µM is 17.2 min and the microsomal CLint at 1 µM came to 80.8 µL/min/mg. In data set [1] (single oral dose 10 mg/kg), the AUC(0-t) turned out to be 1030 ng·h/mL, the half-life is 40 min, the Cmax is 1090 ng/mL and the Tmax was 30 min.
On to `O=C(c1n[nH]c2c1CCNC2)N1CC=C(c2ccc(F)c(F)c2C(F)(F)F)CC1` [Compound 14], for which the “Maximum Plasma RBP4 Reduction Rate” value on RBP4 stood at 53%. In the data set “in vitro” (human), this compound registered a half-life at 1 µM of more than 180 min and a microsomal CLint at 1 µM of less than 7.44 µL/min/mg. In the data set “in vitro” (mouse), this compound had a half-life at 1 µM of 30 min and a microsomal CLint at 1 µM of 46.2 µL/min/mg. Further, in data set [1] (single oral dose 5 mg/kg), the AUC(0-t) amounted to 6000 ng·h/mL, the half-life was 452 min, the Cmax worked out at 364 ng/mL and the time to peak (Tmax) came out at 318 min.
For `CC(C(N)=O)C(=O)N1CCc2c(C(=O)N3CC=C(c4cccc(F)c4C(F)(F)F)CC3)n[nH]c2C1` (centres unmarked) [Compound 22], the “Maximum Plasma RBP4 Reduction Rate” value at RBP4 is 11%. For the same compound, in “in vitro” (human), the half-life at 1 µM was more than 180 min and the microsomal CLint at 1 µM is less than 7.44 µL/min/mg. For the same compound, in the data set “in vitro” (mouse), the half-life at 1 µM amounted to 43 min and the microsomal CLint at 1 µM worked out at 32.2 µL/min/mg. Besides, in data set [1] (single oral dose 10 mg/kg), the AUC(0-t) was found to be 13.3 ng·h/mL, the Cmax was found to be 15.2 ng/mL and the Tmax was 30 min.
